Test results as given in PubChem BioAssay AID2060903 (Molecular Pharmacology Branch, DTP, NCI, 2025).

Test system: 377384-186-R-J1-PDC complex spheroid viability
Assay: Anticancer human tumor 377384-186-R-J1-PDC patient-derived pancreatic carcinoma cell line growth inhibition [RAS]
Details: for IC50: curve of first compound; for viability, T/C: stronger effect = lower value
Text: RAS pathway inhibitors in Combinations in Complex Spheroids
A high-throughput screen of multi-cell type tumor spheroids was designed to identify active combinations of RAS pathway inhibitors and targeted small molecules. Complex spheroids include a stromal component modeled by human endothelial cells (HUVEC) and fibroblasts modeled by human mesenchymal stem cells (MSCs). The concentration ranges selected for each drug and investigational agent were based upon clinically achievable concentrations if the clinical Cmax of the agent was known.
Compounds. The drugs and investigational agents: abemaciclib (NSC768073), cobimetinib (NSC768068), divarasib (GDC6063, NSC841802), docetaxel (NSC628503), GDC-1971 (RLY-1971, NSC841576), gemcitabine (NSC613327), inavolisib (NSC800729), ipatasertib (NSC767898), KB-0742 (NSC834161), MRTX-1133 (NSC836407), osimertinib (NSC779217), RMC-4630 (NSC839698), RMC-6236 (NSC851965), RMC-6291 (NSC852671), Ro-3306 (NSC812927), sapanisertib (NSC764658), SN-38 (NSC673596), staurosporine (NSC755774), SY5609 (NSC837396), and tovorafenib (DAY101, NSC766906), were obtained from the National Cancer Institute (NCI) Developmental Therapeutics Program Chemical Repository. The FDA-approved anticancer drug set is available from the NCI Developmental Therapeutics Program. […] The stock solutions were prepared in dimethyl sulfoxide (DMSO, Sigma-Aldrich, St. Louis, MO, cat. D2650) at 800-fold the tested concentration and stored at -70 degrees C prior to their use. All drugs and investigational agents were tested over a range starting from a high concentration at or near the clinical Cmax and decreasing in half-log increments. If the clinical Cmax for an agent had not been determined, the highest concentration tested was 10 microM.
Cell Culture. All cells were maintained in an incubator at 37 degrees C and 5% CO2 with 95% humidity. The PDC lines were cultured according to standard operating procedures established by the NCI PDMR. All PDCs were thawed and cultured in Matrigel-coated flasks prepared with a working solution of 1X Ham's F-12 nutrient mix, without supplementation (Invitrogen, Waltham, MA, cat. 11765054), 100 U/mL penicillin-streptomycin (Invitrogen, cat. 15140122), and 2.5% Matrigel (Corning Inc., Corning, NY, cat. 354248) for the first three passages. The 362531-283-R-J2-PDC and 782815-120-R-J1-PDC lines were cultured in 6C/Colon 1B media, which includes advanced DMEM/F-12 (Thermo Fisher Scientific, cat. 12634028), 10 mM HEPES (Thermo Fisher Scientific, cat. 15630080), 1X GlutaMAX supplement (Thermo Fisher Scientific, cat. 35050061), 0.1 mg/mL primocin (InvivoGen, San Diego, CA, cat. ant-pm-2), 10% defined fetal bovine serum, heat inactivated (HyClone Laboratories Inc., Logan, UT, cat. SH30070.03HI), 50% L-WRN conditioned media (ATCC, cat. CRL-3276), 1.25 mM N-Acetyl-L-cysteine (Sigma-Aldrich, cat. A9165), 10 mM nicotinamide (Sigma-Aldrich, cat. N0636), 1X B-27 supplement (Thermo Fisher Scientific, cat. 17504044), 1X N-2 supplement (Thermo Fisher Scientific, cat. 17502048), 50 ng/mL human EGF (Thermo Fisher Scientific, cat. PHG0311), and 10 microM Y-27632 dihydrochloride (Tocris Bioscience, cat. 1254). The K12877-001-R-J1-PDC line was cultured in 6I media, which includes all 6C/Colon 1B media plus 10 ng/mL human FGF-10 (PeproTech, cat. 100-26), 1 ng/mL human FGF-2 (PeproTech, cat. 100-18B), 1 µM prostaglandin E2 (Tocris Bioscience, cat. 2296), […] hydrocortisone (Sigma-Aldrich, cat. H4001), and […] bovine insulin (Sigma-Aldrich, cat. I6634). The K86415-001-R-J1-PDC line was cultured in 6D media, which includes all 6C/Colon 1B media components minus the L-WRN conditioned media. The 485176-168-R4-J1-PDC was cultured in PANC media, which includes all 6C/Colon 1B media plus 100 ng/mL human FGF-10 (PeproTech, cat. 100-26), 500 nM SB-431542 (Selleckchem, cat. S1067), and 10 nM gastrin (Tocris Bioscience, cat. 3006). […]
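Also: spheroids exposed to compounds for seven days before readout.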

IC50 (second compound 0.0316 µM): < 31.6 nM
IC50 (second compound 0.1 µM): < 31.6 nM
IC50 (second compound 0.316 µM): < 31.6 nM
IC50 (second compound 1 µM): < 31.6 nM
IC50 (second compound 3.16 µM): < 31.6 nM
IC50 (second compound 10 µM): < 31.6 nM
Compound: CC1(O)CCCC1n1c(=O)c(C(F)F)cc2cnc(NC3CCN(S(C)(=O)=O)CC3)nc21 (configuration not stated) + C#Cc1c(F)ccc2cc(O)cc(-c3ncc4c(N5CC6CCC(C5)N6)nc(OCC56CCCN5CC(F)C6)nc4c3F)c12
viability, T/C (second compound 0.0316 µM, first compound 0.0316 µM): 15.5%
viability, T/C (second compound 0.0316 µM, first compound 0.1 µM): 12.7%
viability, T/C (second compound 0.0316 µM, first compound 0.316 µM): 10%
viability, T/C (second compound 0.0316 µM, first compound 1 µM): 11.7%
viability, T/C (second compound 0.0316 µM, first compound 3.16 µM): 16%
viability, T/C (second compound 0.0316 µM, first compound 10 µM): 5.41%
viability, T/C (second compound 0.1 µM, first compound 0.0316 µM): 8.93%
viability, T/C (second compound 0.1 µM, first compound 0.1 µM): 6.57%
viability, T/C (second compound 0.1 µM, first compound 0.316 µM): 6.54%
viability, T/C (second compound 0.1 µM, first compound 1 µM): 7.97%
viability, T/C (second compound 0.1 µM, first compound 3.16 µM): 9.01%
viability, T/C (second compound 0.1 µM, first compound 10 µM): 4.92%
viability, T/C (second compound 0.316 µM, first compound 0.0316 µM): 5.04%
viability, T/C (second compound 0.316 µM, first compound 0.1 µM): 3.52%
viability, T/C (second compound 0.316 µM, first compound 0.316 µM): 3.71%
viability, T/C (second compound 0.316 µM, first compound 1 µM): 4.22%
viability, T/C (second compound 0.316 µM, first compound 3.16 µM): 6.59%
viability, T/C (second compound 0.316 µM, first compound 10 µM): 5.41%
viability, T/C (second compound 1 µM, first compound 0.0316 µM): 2.55%
viability, T/C (second compound 1 µM, first compound 0.1 µM): 2.39%
viability, T/C (second compound 1 µM, first compound 0.316 µM): 2.88%
viability, T/C (second compound 1 µM, first compound 1 µM): 3.55%
viability, T/C (second compound 1 µM, first compound 3.16 µM): 4.3%
viability, T/C (second compound 1 µM, first compound 10 µM): 5.91%
viability, T/C (second compound 3.16 µM, first compound 0.0316 µM): 2%
viability, T/C (second compound 3.16 µM, first compound 0.1 µM): 2.27%
viability, T/C (second compound 3.16 µM, first compound 0.316 µM): 3.01%
viability, T/C (second compound 3.16 µM, first compound 1 µM): 3.27%
viability, T/C (second compound 3.16 µM, first compound 3.16 µM): 3.34%
viability, T/C (second compound 3.16 µM, first compound 10 µM): 6.51%
viability, T/C (second compound 10 µM, first compound 0.0316 µM): 1.76%
viability, T/C (second compound 10 µM, first compound 0.1 µM): 1.46%
viability, T/C (second compound 10 µM, first compound 0.316 µM): 1.91%
viability, T/C (second compound 10 µM, first compound 1 µM): 2%
viability, T/C (second compound 10 µM, first compound 3.16 µM): 1.28%
viability, T/C (second compound 10 µM, first compound 10 µM): 2.73%
